Measured values as given in patent publication US20240366560A1, “SMALL MOLECULE TREATMENT OF FATTY LIVER DISEASE AND HCC” (ScandiEdge Therapeutics AB, priority 2021, published 2024).

Tested on: HSD-fed rats
Test: In vivo efficacy study in HSD-fed steatosis rats: histopathological examination
Settings: 30 mg/kg; for degeneration in renal tubule epithelium / fattening in the parenchyma cells of pancreas tissues / degeneration in hepatocytes in liver tissues / steatosis in hepatocytes in liver tissues: HSD 3w group: severe; for degeneration in hepatocytes in liver tissues / steatosis in hepatocytes in liver tissues: FIG. 3
Description: In vivo efficacy studies. After 1-week acclimation period, rats were randomly separated into two groups: control group (n=5) and high sucrose group (n=20). The control group was fed with a standard diet while the others consumed high sucrose diet (HSD). Sucrose was purchased from Sigma Chemical Co. (St Louis, MO, USA) and supplied at the dose of 10% in the drink water for two weeks.
After 2 weeks, five rats in the HSD group were randomly sacrificed for conformation of NAFLD model. Then, the remaining rats in the HSD group were separated into three sub-groups (n=5): HSD group, HSD plus BX-912 group and HSD plus JNK-IN-5A group. BX-912 and JNK-IN-5A were dissolved in DMSO and were orally administrated using oral gavage for one week (30 mg/kg/day). The HSD group were treated with vehicle solution only.
At the end of the experiment, rats were sacrificed after being anesthetized. Blood samples were collected from the abdominal aorta and centrifuged at 8000 rpm for 15 min at 4° C. The plasma was separated and stored at −80° C. until further analysis. Other internal organs, including the heart, adipose tissues, liver, kidney, muscle, intestine (duodenum, ileum, jejunum), pancreas, colon and stomach were immediately removed and then snap frozen in liquid nitrogen and stored at −80° C.; the liver was also fixed in 10% formaldehyde for histopathological examination.
Histopathological examination. The liver tissues were fixed in 10% buffered formaldehyde solution. After fixation, the tissues were passed through graded alcohol and xylene series and embedded in paraffin blocks. 5 micrometer thick sections were taken serially from the paraffin blocks. Histopathological changes were evaluated by performing hematoxylin eosin staining on the sections taken. Sections were evaluated according to histopathological findings as none (−), mild (+), moderate (++) and severe (+++).
Next, the efficacy of these two drugs in a steatosis rat study was investigated by feeding the animals with HSD. Five groups of 12-week-old rats (n=5) were raised. For two weeks, the first group was fed with CHOW and the remaining four groups were fed with HSD. […] One of the remaining groups was fed with HSD (HSD 3w) for seven days. Another one of the remaining groups was fed with HSD plus BX-912 (30 mg/kg) for seven days. The last one of the remaining groups was fed with HSD plus JNK-IN-5A (30 mg/kg) for seven days. After said seven days, all three groups were sacrificed, and tissue samples from the liver and other major organs and blood samples were collected for efficacy examination. A histopathological and immunohistochemical analysis was performed on the liver samples and other major organs obtained from the three rat groups.

Row | SMILES | degeneration in renal tubule epithelium (HSD-fed rats, 7 days) | fattening in the parenchyma cells of pancreas tissues (HSD-fed rats, 7 days) | degeneration in hepatocytes in liver tissues (HSD-fed rats, 7 days) | steatosis in hepatocytes in liver tissues (HSD-fed rats, 7 days) | toxic effect on small intestine, large intestine, stomach, heart and muscle tissues (rat, in vivo) | toxic effect on small intestine, large intestine, stomach, heart and muscle tissues (HSD-fed rats, 7 days)
1 | O=C(Nc1cccc(Nc2ncc(Br)c(NCCc3cnc[nH]3)n2)c1)N1CCCC1 [BX-912, N-[3-[[5-bromo-4-[[2-(1H-imidazol-5-yl)ethyl]amino]-2-pyrimidinyl]amino]phenyl]-1-pyrrolidinecarboxamide] | mild | mild | Mild | moderate | no toxic effect | –
2 | N#Cc1c(NC(=O)c2cccc3ccccc23)sc2c1CCCC2 [JNK-IN-5A, N-(3-cyano-4,5,6,7-tetrahydrobenzo [b]thien-2-yl)-1-naphthalenecarboxamide] | mild | mild | mild | mild | – | no toxic effect
